Experimental data: ChEMBL document CHEMBL4002633, “Synthesis, evaluation and quantitative structure-activity relationship (QSAR) analysis of Wogonin derivatives as cytotoxic agents” (Bioorg Med Chem Lett, 2017)

Tests used:
A549 [1] = assay: Cytotoxicity against human A549 cells assessed as reduction in cell viability after 48 hrs by MTT assay; type: functional, cell-based; details: A549, 48 h
HepG2 [2] = assay: Cytotoxicity against human HepG2 cells assessed as reduction in cell viability after 48 hrs by MTT assay; type: functional, cell-based; details: HepG2, 48 h
HepG2 [3] = assay: Potency index, ratio of 5-fluorouracil IC50 to compound IC50 for human HepG2 cells; type: functional
A549 [4] = assay: Potency index, ratio of 5-fluorouracil IC50 to compound IC50 for human A549 cells; type: functional
[5] = Cytotoxicity against human BCG823 cells assessed as reduction in cell viability after 48 hrs by MTT assay; type: functional, cell-based; details: BCG823, 48 h
[6] = Potency index, ratio of 5-fluorouracil IC50 to compound IC50 for human BCG823 cells; type: functional

| SMILES | IC50 (A549 [1]) [µM] | IC50 (HepG2 [2]; read-out: IC50) [µM] | IC50 (HepG2 [2]; read-out: pIC50 (converted)) [µM] | Ratio IC50 (HepG2 [3]) | Ratio IC50 (A549 [4]) | IC50 [5] [µM] | Ratio IC50 [6] |
| --- | --- | --- | --- | --- | --- | --- | --- |
| COc1c(OCc2ncc(C)o2)cc(O)c2c(=O)cc(-c3ccccc3)oc12 | > 100 | 20.2 | 20.4 | – | – | – | – |
| COc1c(OCCCCN2CCNCC2)cc(O)c2c(=O)cc(-c3ccccc3)oc12 | 1.74 | 1.07 | 1.07 | 18 | 9 | 0.98 | 17 |
| O=c1cc(-c2ccccc2)oc2c(OCCCCNC3CCCCC3)c(O)cc(O)c12 | – | 10.9 | 11 | – | – | 48.6 | – |
| COc1c(O)cc(O)c2c(=O)cc(-c3ccc(Cl)cc3)oc12 | – | 34.2 | 33.9 | – | – | – | – |
| COc1c(OCCCNCc2ccccc2)cc(O)c2c(=O)cc(-c3ccccc3)oc12 | 1.57 | 8.12 | 8.13 | – | – | 9.93 | – |
| COc1c(OCCCCN(CCO)CCO)cc(O)c2c(=O)cc(-c3ccccc3)oc12 | 1.26 | 2.64 | 2.63 | – | – | 5.89 | – |
| CCN(CC)CCCOc1c(O)cc(O)c2c(=O)cc(-c3ccccc3)oc12 | > 100 | 67.5 | 67.6 | – | – | – | – |
| O=c1cc(-c2ccccc2)oc2c(OCCN3CCOCC3)c(O)cc(O)c12 | > 100 | 39.9 | 39.8 | – | – | – | – |
| COc1c(O)cc(O)c2c(=O)cc(-c3ccc(F)cc3Br)oc12 | – | 33.5 | 33.9 | – | – | – | – |
| O=c1cc(-c2ccccc2)oc2c(OCCCCN3CCOCC3)c(O)cc(O)c12 | 82.3 | 15.1 | 15.1 | – | – | – | – |
| CN(C)CCOc1c(O)cc(O)c2c(=O)cc(-c3ccccc3)oc12 | > 100 | 40 | 39.8 | – | – | – | – |
| CNCCCCOc1c(O)cc(O)c2c(=O)cc(-c3ccccc3)oc12 | – | 97 | 97.7 | – | – | > 100 | – |
| COc1c(OCCCCN2CCN(C)CC2)cc(O)c2c(=O)cc(-c3ccccc3)oc12 | 1.5 | 1.12 | 1.12 | – | – | 5.3 | – |
| CC(C)NCCCCOc1c(O)cc(O)c2c(=O)cc(-c3ccccc3)oc12 | – | 29.9 | 30.2 | – | – | 71.2 | – |
| COc1c(OCCCN2CCOCC2)cc(O)c2c(=O)cc(-c3ccccc3)oc12 | 2.3 | 6.5 | 6.46 | – | – | 3.7 | – |
| CC(C)NCCOc1c(O)cc(O)c2c(=O)cc(-c3ccccc3)oc12 | – | 14.1 | 14.1 | – | – | > 100 | – |
| O=c1cc(-c2ccccc2)oc2c(OCCCN3CCOCC3)c(O)cc(O)c12 | > 100 | 21.5 | 20.9 | – | – | – | – |
| CCCNCCCCOc1c(O)cc(O)c2c(=O)cc(-c3ccccc3)oc12 | – | 9.99 | 10 | – | – | 51 | – |
| CCN(CC)CCOc1c(O)cc(O)c2c(=O)cc(-c3ccccc3)oc12 | > 100 | 68.1 | 67.6 | – | – | – | – |
| CCN(CC)CCCCOc1cc(O)c2c(=O)cc(-c3ccccc3)oc2c1OC | 1 | 1.72 | 1.74 | – | – | 6.17 | – |
| CN(C)CCCCOc1c(O)cc(O)c2c(=O)cc(-c3ccccc3)oc12 | > 100 | 35.7 | 35.5 | – | – | – | – |
| COc1c(OCc2cnoc2C)cc(O)c2c(=O)cc(-c3ccccc3)oc12 | > 100 | 21.7 | 21.9 | – | – | – | – |
| CN(C)CCCOc1c(O)cc(O)c2c(=O)cc(-c3ccccc3)oc12 | > 100 | 41.8 | 41.7 | – | – | – | – |
| COc1c(OCCCN(CCO)CCO)cc(O)c2c(=O)cc(-c3ccccc3)oc12 | 3 | 3.79 | 3.8 | – | – | 6.45 | – |
| CC(CO)NCCOc1c(O)cc(O)c2c(=O)cc(-c3ccccc3)oc12 (stereo not given) | – | 43.5 | 43.7 | – | – | 92.2 | – |
| CNCCOc1c(O)cc(O)c2c(=O)cc(-c3ccccc3)oc12 | – | 64.2 | 64.6 | – | – | 59.9 | – |

| SMILES | IC50 (A549 [1]) [µM] | IC50 (HepG2 [2]; read-out: IC50) [µM] | IC50 (HepG2 [2]; read-out: pIC50 (converted)) [µM] | Ratio IC50 (HepG2 [3]) | Ratio IC50 (A549 [4]) | IC50 [5] [µM] | Ratio IC50 [6] |
| --- | --- | --- | --- | --- | --- | --- | --- |
| COc1c(OCCCN2CCN(C)CC2)cc(O)c2c(=O)cc(-c3ccccc3)oc12 | 9.9 | 31.6 | 31.6 | – | – | 52.7 | – |
| COc1c(OCCCCN2CCCC2)cc(O)c2c(=O)cc(-c3ccccc3)oc12 | 1.53 | 3.61 | 3.63 | – | – | 6.34 | – |
| COc1c(OCCCCN2CCCCC2)cc(O)c2c(=O)cc(-c3ccccc3)oc12 | 1.15 | 1.97 | 1.95 | – | – | 18.2 | – |
| O=c1cc(-c2ccccc2)oc2c(OCCCN3CCCC3)c(O)cc(O)c12 | > 100 | 58.5 | 58.9 | – | – | – | – |
| CN1CCN(CCOc2c(O)cc(O)c3c(=O)cc(-c4ccccc4)oc23)CC1 | > 100 | 56.6 | 56.2 | – | – | – | – |
| COc1c(OCCCCNCc2ccccc2)cc(O)c2c(=O)cc(-c3ccccc3)oc12 | 4.59 | 45.7 | 45.7 | – | – | 48.1 | – |
| COc1c(O)cc(O)c2c(=O)cc(-c3ccc(F)cc3)oc12 | – | 43.9 | 43.7 | – | – | – | – |
| COc1c(O)cc(O)c2c(=O)cc(-c3ccc(C)cc3)oc12 | – | 24.9 | 25.1 | – | – | – | – |
| CN1CCN(CCCOc2c(O)cc(O)c3c(=O)cc(-c4ccccc4)oc23)CC1 | > 100 | 42.6 | 42.7 | – | – | – | – |
| COc1c(OCCCN2CCCC2)cc(O)c2c(=O)cc(-c3ccccc3)oc12 | 1.39 | 15.4 | 15.5 | – | – | 17.9 | – |
| COc1c(O)cc(O)c2c(=O)cc(-c3ccc(Br)cc3)oc12 | – | 38.2 | 38 | – | – | – | – |
| O=c1cc(-c2ccccc2)oc2c(OCCN3CCCC3)c(O)cc(O)c12 | 67.7 | 68.5 | 69.2 | – | – | – | – |
| COc1c(OCc2nc3ccccc3[nH]2)cc(O)c2c(=O)cc(-c3ccccc3)oc12 | > 100 | 29.4 | 29.5 | – | – | – | – |
| COc1c(OCCCN2CCNCC2)cc(O)c2c(=O)cc(-c3ccccc3)oc12 | 10.1 | 9.14 | 9.12 | – | – | 12 | – |
| CN1CCN(CCCCOc2c(O)cc(O)c3c(=O)cc(-c4ccccc4)oc23)CC1 | > 100 | 15.1 | 15.1 | – | – | – | – |
| CCCCNCCCCOc1c(O)cc(O)c2c(=O)cc(-c3ccccc3)oc12 | – | 38.9 | 38.9 | – | – | 61.9 | – |
| COc1c(O)cc(O)c2c(=O)cc(-c3cccc(F)c3)oc12 | – | 59.4 | 58.9 | – | – | – | – |
| CCN(CC)CCCOc1cc(O)c2c(=O)cc(-c3ccccc3)oc2c1OC | 1.83 | 3.33 | 3.31 | – | – | 13.3 | – |
| O=c1cc(-c2ccccc2)oc2c(OCCNCCO)c(O)cc(O)c12 | – | 57 | 57.5 | – | – | 59.8 | – |
| CCCCNCCOc1c(O)cc(O)c2c(=O)cc(-c3ccccc3)oc12 | – | 57.2 | 57.5 | – | – | 72.4 | – |
| COc1c(OCCCCN2CCOCC2)cc(O)c2c(=O)cc(-c3ccccc3)oc12 | 1.52 | 3.3 | 3.31 | – | – | 5.3 | – |
| CCCNCCOc1c(O)cc(O)c2c(=O)cc(-c3ccccc3)oc12 | – | 98.4 | 97.7 | – | – | 63 | – |
| O=c1[nH]cc(F)c(=O)[nH]1 [FLUOROURACIL] | 16.1 | 17.2 | – | – | – | 10.1 | – |
| COc1ccc(-c2cc(=O)c3c(O)cc(O)c(OC)c3o2)cc1 [GALANGUSTIN] | – | 42.4 | 42.7 | – | – | – | – |
| COc1c(O)cc(O)c2c(=O)cc(-c3ccccc3)oc12 [WOGONIN] | 15.8 | 19 | 19.1 | – | – | 16.5 | – |
